Source: patent publication US20230210771A1, “COMPOSITIONS FOR THE DELIVERY OF THERAPEUTIC AGENTS AND METHODS OF USE AND MAKING THEREOF” (priority 2020, published 2023)

Assay: Terpene concentration (HPLC, GC-FID)
Format: physicochemical
Settings: terpene content of hemp distillate + alpha-pinene lipid nanoparticle formulation (Example 34), diluted to theoretical 12 mg/mL CBD
Description: A 5 Liter manufacturing batch was analyzed by high pressure liquid chromatography (HPLC) to measure Terpenes present in the sample.
When all ingredients were dissolved, the solvent was removed to form a dried composition. The resulting particle size and zeta potential were determined using a Malvern ZetaSizer and cannabinoid concentrations were determined by UPLC. Terpene concentrations were determined by GC-FID.

**Q.** For CC(C)=CCC/C(C)=C/CO [Geraniol], which “Measured Concentration (mg/g) of terpene” value is on record?
**A.** <LOQ

**Q.** What about the “Measured Concentration (w/w %) of terpene” value of the same molecule?
**A.** <LOQ

**Q.** Which “Measured Concentration (mg/g) of terpene” value does the source give for CC(C)=CCC[C@](C)(O)[C@@H]1CC=C(C)CC1 [alpha-Bisabolol] here?
**A.** 0.062 mg/g

**Q.** And the “Measured Concentration (w/w %) of terpene” value?
**A.** 0.006%

**Q.** Which “Measured Concentration (mg/g) of terpene” value does the source give for C=CC(C)(O)CC/C=C(/C)CCC=C(C)C (stereo not drawn) [cis-Nerolidol] here?
**A.** <LOQ

**Q.** What about the “Measured Concentration (w/w %) of terpene” value of the same molecule?
**A.** <LOQ

**Q.** What does the source list for CC1=CCC(C(C)C)=CC1 [y-Terpinene]?
**A.** Measured Concentration (mg/g) of terpene: <LOQ; Measured Concentration (w/w %) of terpene: <LOQ

**Q.** For C=C/C(C)=C\CC=C(C)C [z-Ocimene], which “Measured Concentration (mg/g) of terpene” value is on record?
**A.** <LOQ

**Q.** What about the “Measured Concentration (w/w %) of terpene” value of the same molecule?
**A.** <LOQ

**Q.** For Cc1ccc(C(C)C)cc1 [p-Cymene], which “Measured Concentration (mg/g) of terpene” value is on record?
**A.** <LOQ

**Q.** And the “Measured Concentration (w/w %) of terpene” value?
**A.** <LOQ

**Q.** What does the source list for C=C1CC[C@H]2O[C@]2(C)CC[C@@H]2[C@@H]1CC2(C)C [Caryophyllene Oxide]?
**A.** Measured Concentration (mg/g) of terpene: <LOQ; Measured Concentration (w/w %) of terpene: <LOQ

**Q.** What does the source list for C[C@H]1CC[C@@H](C(C)(C)O)CC2=C1CC[C@@H]2C [alpha-Guaiol]?
**A.** Measured Concentration (mg/g) of terpene: 0.023 mg/g; Measured Concentration (w/w %) of terpene: 0.002%

**Q.** With CC1=CCC2C(C1)C2(C)C (centres unmarked) [Carene] as the molecule, how does the “Measured Concentration (mg/g) of terpene” value read?
**A.** <LOQ

**Q.** What about the “Measured Concentration (w/w %) of terpene” value of the same molecule?
**A.** <LOQ

**Q.** With C=C1CCC2CC1C2(C)C (stereo not drawn) [beta-Pinene] as the molecule, how does the “Measured Concentration (mg/g) of terpene” value read?
**A.** 0.026 mg/g

**Q.** What about the “Measured Concentration (w/w %) of terpene” value of the same molecule?
**A.** 0.003%

**Q.** Which “Measured Concentration (mg/g) of terpene” value does the source give for CC12CCC(CC1)C(C)(C)O2 [Eucalyptol] here?
**A.** <LOQ

**Q.** What about the “Measured Concentration (w/w %) of terpene” value of the same molecule?
**A.** <LOQ

**Q.** Which “Measured Concentration (mg/g) of terpene” value does the source give for C=CC(C)(O)CCC=C(C)C (centres unmarked) [Linalool] here?
**A.** <LOQ

**Q.** What about the “Measured Concentration (w/w %) of terpene” value of the same molecule?
**A.** <LOQ

**Q.** Which results are given for C=C/C(C)=C/CC=C(C)C [e-Ocimene]?
**A.** Measured Concentration (mg/g) of terpene: <LOQ; Measured Concentration (w/w %) of terpene: <LOQ

**Q.** With C=C1CC/C=C(\C)CC[C@@H]2[C@@H]1CC2(C)C [Beta-Caryophyllene] as the molecule, how does the “Measured Concentration (mg/g) of terpene” value read?
**A.** 0.026 mg/g

**Q.** And the “Measured Concentration (w/w %) of terpene” value?
**A.** 0.003%

**Q.** Which results are given for C=C1C2CCC(C2)C1(C)C (centres unmarked) [Camphene]?
**A.** Measured Concentration (mg/g) of terpene: 0.046 mg/g; Measured Concentration (w/w %) of terpene: 0.005%

**Q.** For C=C(C)[C@H]1CC=C(C)CC1 [delta-Limonene], which “Measured Concentration (mg/g) of terpene” value is on record?
**A.** <LOQ

**Q.** What about the “Measured Concentration (w/w %) of terpene” value of the same molecule?
**A.** <LOQ

**Q.** With C=C(C)[C@@H]1CC[C@@H](C)C[C@H]1O [Isopulegol] as the molecule, how does the “Measured Concentration (mg/g) of terpene” value read?
**A.** <LOQ

**Q.** What about the “Measured Concentration (w/w %) of terpene” value of the same molecule?
**A.** <LOQ

**Q.** Which results are given for C=CC(=C)CCC=C(C)C [beta-Myrecene]?
**A.** Measured Concentration (mg/g) of terpene: <LOQ; Measured Concentration (w/w %) of terpene: <LOQ

**Q.** What does the source list for CC1=CCC2CC1C2(C)C (stereo not drawn) [alpha-Pinene]?
**A.** Measured Concentration (mg/g) of terpene: 5.205 mg/g; Measured Concentration (w/w %) of terpene: 0.521%

**Q.** With C=CC(C)(O)CC/C=C(\C)CCC=C(C)C (stereo not drawn) [trans-Nerolidol] as the molecule, how does the “Measured Concentration (mg/g) of terpene” value read?
**A.** <LOQ

**Q.** What about the “Measured Concentration (w/w %) of terpene” value of the same molecule?
**A.** <LOQ

**Q.** What does the source list for C/C1=C\CC/C(C)=C/CC(C)(C)/C=C/C1 [Humulene]?
**A.** Measured Concentration (mg/g) of terpene: <LOQ; Measured Concentration (w/w %) of terpene: <LOQ

**Q.** Which results are given for CC1=CCC(=C(C)C)CC1 [Terpinolene]?
**A.** Measured Concentration (mg/g) of terpene: <LOQ; Measured Concentration (w/w %) of terpene: <LOQ
